Laboratory results as given in ChEMBL document CHEMBL1156330, “Discovery of a spiroindane based compound as a potent, selective, orally bioavailable melanocortin subtype-4 receptor agonist” (Bioorg Med Chem Lett, 2010).
Values belong to the compound of their own block, whether it stands above or below them.

How the values were obtained:
Melanocortin receptor 4 [1] = target: T1, Melanocortin receptor 4 (Homo sapiens, UniProt P32245); assay: Agonist activity at human MC4R expressed in CHO cells assessed as stimulation of intracellular cAMP accumulation at 10 uM relative to alpha-MSH; assay type: functional, cell-based
Melanocortin receptor 4 [2] = target: T1, Melanocortin receptor 4; assay: Displacement of [125I]NDP-alpha-MSH from human MC4R expressed in CHO cells; assay type: cell-based
[3] = target: T2, Melanocyte-stimulating hormone receptor (Homo sapiens, UniProt Q01726); assay: Agonist activity at human MC1R expressed in CHO cells assessed as stimulation of intracellular cAMP accumulation at 10 uM relative to alpha-MSH; assay type: functional, cell-based
Target sequence in this assay (Q01726 whole entry, looked up): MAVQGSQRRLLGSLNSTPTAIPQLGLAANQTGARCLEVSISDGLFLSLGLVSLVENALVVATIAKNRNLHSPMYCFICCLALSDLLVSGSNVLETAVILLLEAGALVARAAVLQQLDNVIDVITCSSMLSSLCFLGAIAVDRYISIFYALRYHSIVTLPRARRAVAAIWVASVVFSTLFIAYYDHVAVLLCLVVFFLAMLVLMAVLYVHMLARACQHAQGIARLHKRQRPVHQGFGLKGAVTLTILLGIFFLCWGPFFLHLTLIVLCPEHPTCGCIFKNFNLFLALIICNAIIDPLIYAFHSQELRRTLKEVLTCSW

Melanocortin receptor 4 [4] = target: T1, Melanocortin receptor 4; assay: Agonist activity at human MC4R expressed in CHO cells assessed as stimulation of intracellular cAMP accumulation; assay type: functional, cell-based
[5] = target: T2, Melanocyte-stimulating hormone receptor; assay: Agonist activity at human MC1R expressed in CHO cells assessed as stimulation of intracellular cAMP accumulation; assay type: functional, cell-based
Target sequence in this assay (Q01726 whole entry): as the sequence (Q01726 whole entry, looked up) above

[6] = Clearance in Sprague-Dawley rat at 1 mg/kg, iv and 4 mg/kg, po; assay type: ADME, organism-based; conditions: in vivo
Melanocortin receptor 4 [7] = target: Melanocortin receptor 4 (Mus musculus, UniProt P56450); assay: Agonist activity at mouse MC4R expressed in CHO cells assessed as stimulation of intracellular cAMP accumulation; assay type: functional, cell-based
[8] = Bioavailability in rhesus monkey at 0.5 mg/kg, iv and 2 mg/kg, po; assay type: ADME, organism-based, Macaca mulatta; conditions: in vivo
Rattus norvegicus [9] = assay: Erectogenic activity in rat assessed as spontaneous erections at 1 ug/kg, iv for 30 mins; assay type: functional
Melanocortin receptor 5 [10] = target: T3, Melanocortin receptor 5 (Homo sapiens, UniProt P33032); assay: Displacement of [125I]NDP-alpha-MSH from human MC5R expressed in CHO cells; assay type: cell-based
[11] = Half life in Beagle dog at 0.5 mg/kg, iv and 1.0 mg/kg, po; assay type: ADME, organism-based, Canis lupus familiaris; conditions: in vivo
Melanocortin receptor 5 [12] = target: T3, Melanocortin receptor 5; assay: Agonist activity at human MC5R expressed in CHO cells assessed as stimulation of intracellular cAMP accumulation at 10 uM relative to alpha-MSH; assay type: functional, cell-based
Rattus norvegicus [13] = assay: Erectogenic activity in rat assessed as spontaneous erections at 0.001 mg/kg, iv for 30 mins; assay type: functional
[14] = Volume of distribution at steady state in Beagle dog at 0.5 mg/kg, iv and 1.0 mg/kg, po; assay type: ADME, organism-based, Canis lupus familiaris; conditions: in vivo, read-out: Vdss
[15] = target: T2, Melanocyte-stimulating hormone receptor; assay: Displacement of [125I]NDP-alpha-MSH from human MC1R expressed in CHO cells; assay type: cell-based
Target sequence in this assay (Q01726 whole entry): as the sequence (Q01726 whole entry, looked up) above

[16] = Bioavailability in Beagle dog at 0.5 mg/kg, iv and 1.0 mg/kg, po; assay type: ADME, organism-based, Canis lupus familiaris; conditions: in vivo
Melanocortin receptor 3 [17] = target: T4, Melanocortin receptor 3 (Homo sapiens, UniProt P41968); assay: Agonist activity at human MC3R expressed in CHO cells assessed as stimulation of intracellular cAMP accumulation; assay type: functional, cell-based
Melanocortin receptor 3 [18] = target: T4, Melanocortin receptor 3; assay: Displacement of [125I]NDP-alpha-MSH from human MC3R expressed in CHO cells; assay type: cell-based
Rattus norvegicus [19] = assay: Erectogenic activity in rat assessed as spontaneous erections at 0.01 mg/kg, iv for 30 mins; assay type: functional
Melanocortin receptor 3 [20] = target: Melanocortin receptor 3 (Rattus norvegicus, UniProt P32244); assay: Agonist activity at rat MC3R expressed in CHO cells assessed as stimulation of intracellular cAMP accumulation; assay type: functional, cell-based
[21] = target: Melanocortin receptor 4 (Rattus norvegicus) (UniProt P70596); assay: Agonist activity at rat MC4R expressed in CHO cells assessed as stimulation of intracellular cAMP accumulation at 10 uM relative to alpha-MSH; assay type: functional, cell-based
[22] = Volume of distribution at steady state in Sprague-Dawley rat at 1 mg/kg, iv and 4 mg/kg, po; assay type: ADME, organism-based; conditions: in vivo, read-out: Vdss
Rattus norvegicus [23] = assay: Antiobesity activity in po dosed DIO rat assessed as decrease in body weight after 14 days
[24] = Clearance in rhesus monkey at 0.5 mg/kg, iv and 2 mg/kg, po; assay type: ADME, organism-based, Macaca mulatta; conditions: in vivo
Rattus norvegicus [25] = assay: Antiobesity activity in po dosed DIO rat assessed as decrease in food intake after 14 days
Rattus norvegicus [26] = assay: Erectogenic activity in iv dosed rat assessed as spontaneous erections measured for 30 mins; assay type: functional, organism-based
Rattus norvegicus [27] = assay: Erectogenic activity in rat assessed as spontaneous erections at 1 mg/kg, iv for 30 mins; assay type: functional
Rattus norvegicus [28] = assay: Erectogenic activity in rat assessed as spontaneous erections at 3 mg/kg, iv for 30 mins; assay type: functional
Melanocortin receptor 3 [29] = target: T4, Melanocortin receptor 3; assay: Agonist activity at human MC3R expressed in CHO cells assessed as stimulation of intracellular cAMP accumulation at 10 uM relative to alpha-MSH; assay type: functional, cell-based
[30] = Half life in Sprague-Dawley rat at 1 mg/kg, iv and 4 mg/kg, po; assay type: ADME, organism-based; conditions: in vivo
[31] = Half life in rhesus monkey at 0.5 mg/kg, iv and 2 mg/kg, po; assay type: ADME, organism-based, Macaca mulatta; conditions: in vivo
[32] = Clearance in Beagle dog at 0.5 mg/kg, iv and 1.0 mg/kg, po; assay type: ADME, organism-based, Canis lupus familiaris; conditions: in vivo
[33] = Volume of distribution at steady state in rhesus monkey at 0.5 mg/kg, iv and 2 mg/kg, po; assay type: ADME, organism-based, Macaca mulatta; conditions: in vivo, read-out: Vdss
[34] = Bioavailability in Sprague-Dawley rat at 1 mg/kg, iv and 4 mg/kg, po; assay type: ADME, organism-based; conditions: in vivo
Rattus norvegicus [35] = assay: Erectogenic activity in rat assessed as spontaneous erections at 0.1 mg/kg, iv for 30 mins; assay type: functional
[36] = target: Melanocortin receptor 3 (Rattus norvegicus) (UniProt P32244); assay: Agonist activity at rat MC3R expressed in CHO cells assessed as stimulation of intracellular cAMP accumulation at 10 uM relative to alpha-MSH; assay type: functional, cell-based
Melanocortin receptor 4 [37] = target: Melanocortin receptor 4 (Rattus norvegicus, UniProt P70596); assay: Agonist activity at rat MC4R expressed in CHO cells assessed as stimulation of intracellular cAMP accumulation; assay type: functional, cell-based
[38] = target: Melanocortin receptor 4 (Mus musculus) (UniProt P56450); assay: Agonist activity at mouse MC4R expressed in CHO cells assessed as stimulation of intracellular cAMP accumulation at 10 uM relative to alpha-MSH; assay type: functional, cell-based
Sequence of Melanocortin receptor 4 (Mus musculus) (P56450 whole entry): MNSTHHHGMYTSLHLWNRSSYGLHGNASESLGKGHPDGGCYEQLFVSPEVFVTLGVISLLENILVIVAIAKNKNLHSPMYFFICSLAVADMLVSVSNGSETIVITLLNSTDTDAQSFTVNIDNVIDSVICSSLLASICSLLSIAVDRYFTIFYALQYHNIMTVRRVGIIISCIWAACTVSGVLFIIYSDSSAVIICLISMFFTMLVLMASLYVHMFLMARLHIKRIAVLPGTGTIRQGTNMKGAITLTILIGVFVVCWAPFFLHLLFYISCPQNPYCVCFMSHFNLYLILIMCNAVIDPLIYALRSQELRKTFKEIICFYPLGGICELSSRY

T1 sequence (P32245 whole entry): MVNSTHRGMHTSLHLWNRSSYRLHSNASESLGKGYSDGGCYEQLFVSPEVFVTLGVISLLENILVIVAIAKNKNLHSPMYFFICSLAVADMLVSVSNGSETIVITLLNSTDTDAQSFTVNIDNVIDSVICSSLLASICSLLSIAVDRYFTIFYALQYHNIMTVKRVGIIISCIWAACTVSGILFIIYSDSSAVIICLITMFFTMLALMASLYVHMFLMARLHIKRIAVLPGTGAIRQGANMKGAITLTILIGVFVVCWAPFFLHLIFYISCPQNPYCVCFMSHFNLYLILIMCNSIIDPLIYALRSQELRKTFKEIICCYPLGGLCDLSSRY
T4 sequence (P41968 whole entry): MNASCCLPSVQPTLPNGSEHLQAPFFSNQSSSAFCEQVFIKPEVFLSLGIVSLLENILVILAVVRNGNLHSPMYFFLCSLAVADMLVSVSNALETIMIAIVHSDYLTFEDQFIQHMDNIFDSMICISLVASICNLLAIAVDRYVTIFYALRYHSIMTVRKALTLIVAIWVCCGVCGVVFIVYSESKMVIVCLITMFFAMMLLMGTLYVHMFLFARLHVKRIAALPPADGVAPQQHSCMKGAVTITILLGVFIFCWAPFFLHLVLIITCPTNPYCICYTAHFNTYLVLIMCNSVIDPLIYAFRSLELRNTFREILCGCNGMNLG
T3 sequence (P33032 whole entry): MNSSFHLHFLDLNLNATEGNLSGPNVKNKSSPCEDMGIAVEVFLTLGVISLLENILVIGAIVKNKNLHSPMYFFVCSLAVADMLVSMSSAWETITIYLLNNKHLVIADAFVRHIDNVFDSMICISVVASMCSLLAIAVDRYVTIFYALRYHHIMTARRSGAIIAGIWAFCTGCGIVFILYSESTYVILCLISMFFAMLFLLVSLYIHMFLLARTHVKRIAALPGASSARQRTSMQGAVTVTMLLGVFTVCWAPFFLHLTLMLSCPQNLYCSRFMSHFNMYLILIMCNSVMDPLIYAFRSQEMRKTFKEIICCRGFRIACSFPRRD
Sequence of Melanocortin receptor 4 (Rattus norvegicus, UniProt P70596) (P70596 whole entry): as the sequence (P56450 whole entry) above, with Y21H, P36S, S199T, T239A, S329P, S330G counted along it
Sequence of Melanocortin receptor 4 (Rattus norvegicus) (P70596 whole entry): as the sequence (P56450 whole entry) above, with Y21H, P36S, S199T, T239A, S329P, S330G counted along it
Sequence of Melanocortin receptor 3 (Rattus norvegicus, UniProt P32244) (P32244 whole entry): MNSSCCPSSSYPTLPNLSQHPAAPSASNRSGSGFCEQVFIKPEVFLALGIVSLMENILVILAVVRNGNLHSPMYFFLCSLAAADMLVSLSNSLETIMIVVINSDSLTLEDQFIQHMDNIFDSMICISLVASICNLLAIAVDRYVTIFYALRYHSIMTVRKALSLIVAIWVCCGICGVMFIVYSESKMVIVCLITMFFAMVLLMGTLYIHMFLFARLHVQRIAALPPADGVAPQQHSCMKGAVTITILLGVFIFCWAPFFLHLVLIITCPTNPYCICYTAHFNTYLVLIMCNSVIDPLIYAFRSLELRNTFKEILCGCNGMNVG
Sequence of Melanocortin receptor 3 (Rattus norvegicus) (P32244 whole entry): as above
Sequence of Melanocortin receptor 4 (Mus musculus, UniProt P56450) (P56450 whole entry): as the sequence (P56450 whole entry) above

Emax (Melanocortin receptor 4 [1]): 111%
IC50 (Melanocortin receptor 4 [2]): 39.7 nM
Emax [3]: 41%
EC50 (Melanocortin receptor 4 [4]): 37.2 nM
EC50 [5]: 620 nM
Structure (SMILES): CC(=O)NC(C)(C)[C@H]1CC2(CCN(C(=O)[C@H]3CN(C(C)(C)C)C[C@@H]3c3ccc(F)cc3F)CC2)c2cc(Cl)c(C)cc21

Emax (Melanocortin receptor 4 [1]): 107%
IC50 (Melanocortin receptor 4 [2]): 89 nM
Emax [3]: 15%
EC50 (Melanocortin receptor 4 [4]): 94 nM
Structure (SMILES): CC(=O)NC(C)(C)[C@@H]1CC2(CCN(C(=O)[C@H]3CN(C(C)(C)C)C[C@@H]3c3ccc(F)cc3F)CC2)c2cc(Cl)c(C)cc21

Emax (Melanocortin receptor 4 [1]): 97%
IC50 (Melanocortin receptor 4 [2]): 4.3 nM
Emax [3]: 39%
EC50 (Melanocortin receptor 4 [4]): 3.2 nM
EC50 [5]: 228 nM
Structure (SMILES): CC(=O)NC(C)(C)[C@H]1CC2(CCN(C(=O)[C@@H]3CN(C(C)(C)C)C[C@H]3c3ccc(F)cc3F)CC2)c2cc(Cl)c(C)cc21

clearance [6]: 12 mL/min/kg
EC50 (Melanocortin receptor 4 [7]): 22 nM
bioavailability [8]: 53%
IC50 (Melanocortin receptor 5 [10]): 83.9 nM
half-life [11]: 11.2 h
Emax (Melanocortin receptor 4 [1]): 105%
Activity (Melanocortin receptor 5 [12]): 9%
Vd [14]: 3.5 L/kg
IC50 (Melanocortin receptor 4 [2]): 13 nM
IC50 [15]: 1940 nM
bioavailability [16]: 71%
EC50 (Melanocortin receptor 3 [17]): 351 nM
IC50 (Melanocortin receptor 3 [18]): 890 nM
EC50 (Melanocortin receptor 3 [20]): 997 nM
Emax [3]: 18%
Activity [21]: 126%
Vd [22]: 5.1 L/kg
clearance [24]: 9.6 mL/min/kg
EC50 (Melanocortin receptor 4 [4]): 4.9 nM
Activity (Melanocortin receptor 3 [29]): 71%
half-life [30]: 4.5 h
half-life [31]: 3.9 h
clearance [32]: 3.5 mL/min/kg
EC50 [5]: 1020 nM
Vd [33]: 3.5 L/kg
bioavailability [34]: 33%
Activity [36]: 97%
EC50 (Melanocortin receptor 4 [37]): 2 nM
Activity [38]: 197%
Structure (SMILES): CC(=O)NC(C)(C)[C@@H]1CC2(CCN(C(=O)[C@@H]3CN(C(C)(C)C)C[C@H]3c3ccc(F)cc3F)CC2)c2cc(Cl)c(C)cc21
Activity (Rattus norvegicus [9]): 83%
Activity (Rattus norvegicus [13]): 75%
Activity (Rattus norvegicus [19]): 92%
Activity (Rattus norvegicus [23]): Dose-dependent effect
Activity (Rattus norvegicus [25]): Dose-dependent effect
Activity (Rattus norvegicus [26]): Dose-dependent effect
Activity (Rattus norvegicus [27]): 88%
Activity (Rattus norvegicus [28]): 75%
Activity (Rattus norvegicus [35]): 100%
